# Source: patent US20250198977A1, “DETECTION METHOD, DRIED ALGAE MANUFACTURING METHOD, DRIED ALGAE, AND DRIED ALGAE QUALITY MANAGEMENT METHOD” (priority 2022, published 2025)
# Assays:
# [1] = test system: L-dried matter of Cyanobium sp. NIES-981; assay: Detection of chemical substances by delayed luminescence (DFI) of rehydrated L-dried matter; format: cell-based
# Procedure: (§1) Various kinds of the L-dried matter obtained in the above-described cryo vial, and test water (water containing the chemical substances listed below at the concentrations (w/v) shown in Table 7) were prepared.
# (§2) (metal mixed solution which was prepared by simulation based on formulation of a rock eluate from a core sample collected during a survey voyage of “Chikyu” by the Japan Agency for Marine-Earth Science and Technology; mainly containing lead and zinc (Yamagishi et al. Ecotoxicology (2018) 27:1303-1309)) • Copper • Zinc • Lead • Arsenic: in NIES-35, NIES-969, and NIES-2885, test water containing As(V) at 1 ppm (w/v) was also used for examination.
# (§3) In a case of tests using freshwater algae, distilled water was used as the test water or control water, and in a case of tests using marine algae, filtered and sterilized seawater was used as the test water or control water.
# (§4) Using a cuvette as a measurement container, 100 μL of the above-described cell suspension was dried to obtain 1 unit of the L-dried matter, and resuspended (rehydrated) in 3.5 mL of test water or control water.
# (§5) After the rehydration, the L-dried matter and the test water or control water were rapidly and thoroughly mixed by pipetting to obtain a measurement sample (measurement object).
# (§6) The sample was set in a weak luminescence measurement device (manufactured by Hamamatsu Photonics K.K., weak luminescence coefficient device, Type-7100). After exposure with excitation light from a light source attached to the device, delayed luminescence was measured immediately after a point of time of the rehydration (within 30 seconds), 15 minutes later, 30 minutes later, 60 minutes later, and 90 minutes later. The measurement time for each delayed luminescence was set to 10 seconds.
# (§7) The sum of amounts of delayed luminescence (photon count) measured over 10 seconds was calculated and defined as the delayed fluorescence integral (DFI). In addition, for the sample after the rehydration, an absorbance at a wavelength of 600 nm with an optical path length of 1 cm was simultaneously measured. The DFI value per cell number of the L-dried matter was obtained by dividing the DFI by the value (DFI/OD600).
# [2] = test system: L-dried matter of Prochlorococcus sp. NIES-2885; assay: as above; format: cell-based
# Procedure: as §1, §2, §3, §4, §5, §6, §7
# [3] = test system: L-dried matter of Raphidocelis subcapitata NIES-35; assay: as above; format: cell-based
# Procedure: as §1, §2, §3, §4, §5, §6, §7
# [4] = test system: L-dried matter of Synechococcus sp. NIES-969; assay: as above; format: cell-based
# Procedure: as §1, §2, §3, §4, §5, §6, §7
# [5] = test system: L-dried matter of NIES-981 on filter; assay: Detection test for DCMU using L-dried matter on a filter; format: cell-based, Cyanobium sp.; details: DCMU 1 μM; 5 minutes after exposure; *P<0.01, N=4
# Procedure: 25 to 50 mL of a culture solution of NIES-981 was passed through a filter (Whatman GF/F glass fiber filter paper (diameter: 47 mm)) set in a filtration unit, capturing the cells on the filter. After the filtration, 1 mL of a protective medium (Table 6) was immediately added dropwise onto the filter. The filter on which the cells were captured was subjected to low-temperature vacuum drying for 1 to 2 hours using a low-temperature vacuum drying device (manufactured by Forest Technology Systems Ltd., FLEXI-DRY) capable of performing L-drying. Subsequent steps were performed in the same manner as in the preparation of the L-dried sample in the vial described above, thereby obtaining L-dried matter of algae on the filter (FIG. 8).
# The L-dried matter obtained on the filter was exposed to seawater or test water containing DCMU at a concentration of 1 μM, and the delayed luminescence was measured 5 minutes after the exposure.
# [6] = test system: L-dried matter of NIES-35; assay: Detectable concentration by significant difference test, 15 min exposure of L-dried matter; format: cell-based, Raphidocelis subcapitata; details: exposed for 15 minutes
# Source text: The concentration of HA corresponds to a 100 million-fold dilution of a commercially available stock solution.
# [7] = test system: L-dried matter of NIES-35; assay: Quality evaluation of stored L-dried matter with DCMU; format: cell-based, Raphidocelis subcapitata; details: DCMU 1 μM, after 15 minutes
# Procedure: The L-dried matter stored at 4° C. for 2 weeks was compared with the L-dried matter stored at 37° C. for 2 weeks (accelerated deterioration product). In each case, DCMU was added to the L-dried matter of NIES-35 at the same time as the rehydration, such that the final concentration was 1 μM (DCMU addition group), and the delayed luminescence after 15 minutes was measured. In addition, the delayed luminescence was measured in the control (non-addition group) in which DCMU was not added, following the same procedure.
# [8] = test system: L-dried matter of NIES-981; assay: Estimation of half-effective concentration (EC50) from delayed luminescence dose-response curve; format: cell-based, Cyanobium sp.; details: exposed simultaneously with rehydration; delayed luminescence after 15 minutes
# Procedure: A dose-response curve of the L-dried matter with respect to a representative metal was created, and a half-effective concentration (EC50) was estimated. For the L-dried matter of NIES-981, zinc at 0 to 1 ppm (w/v) or Cy metal mixed solution at 0 to 10% (w/v) was exposed simultaneously with rehydration. After 15 minutes, the delayed luminescence was measured, and a dose-response curve was created.
# [9] = test system: same type of biocyanobacteria; assay: 24-hour exposure test on the same type of cyanobacteria; format: cell-based; details: different bioassay method
# Procedure: In a case where the half-effective concentration (EC50) was calculated, the zinc was 0.05 ppm (w/v) (FIG. 11) and the Cy metal mixed solution was 0.7% (w/v) (FIG. 12). Although it is not possible to simply compare the values because the values were obtained by different bioassay methods, the EC50 value during the zinc exposure was 0.07 ppm in a case where the 24-hour exposure test was performed on the same type of biocyanobacteria, and the EC50 value was similar to this value.
# [10] = test system: L-dried matter of NIES-35; assay: Detection test for ammonia nitrogen using L-dried matter; format: cell-based, Raphidocelis subcapitata; details: 60 minutes after addition; T-test, P<0.05, N=3
# Procedure: To the L-dried matter of NIES-35 obtained in the cryo vial, a sample containing ammonia nitrogen at a concentration shown in FIG. 10 was added, and the delayed luminescence was measured 60 minutes after the addition.
# [11] = Pb^2+ 1 ppm, first value → later value
# [12] = Zn^2+ 0.5 ppm, first value → later value
compound,measurement,setting,value
"[Cu+2] [Cu^2+, Copper]",comparison with control group (DFI value),[1]; Cu^2+ 1 ppm,higher
same,comparison with control group (DFI value),[2]; Cu^2+ 1 ppm,lower
same,comparison with control group (DFI value),[3]; Cu^2+ 1 ppm,lower
same,comparison with control group (DFI value),[4]; Cu^2+ 1 ppm,lower
"CN(C)C(=O)Nc1ccc(Cl)c(Cl)c1 [DCMU, 3-(3,4-dichlorophenyl)-1,1-dimethylurea, reference compound]",comparison with control group (DFI value),[1]; DCMU 1 μM,higher
same,comparison with control group (DFI value),"[2]; DCMU 1 μM, first value → later value",higher
same,comparison with control group (DFI value),[3]; DCMU 1 μM,higher
same,comparison with control group (DFI value),[4]; DCMU 1 μM,higher
same,"amount of delayed luminescence, DCMU versus seawater",[5],significant difference
same,detectable concentration (significant difference test),[6],≤ 0.1 µM
same,detectable concentration (significant difference test),[6]; conversion of 0.1 μM,approximately 0.02 ppm
same,"delayed luminescence, DCMU-added group versus non-addition group",[7]; L-dried matter stored at 4° C. for 2 weeks,a difference was observed
same,"delayed luminescence, DCMU-added group versus non-addition group",[7]; L-dried matter stored at 37° C. for 2 weeks,no significant difference was observed
"NO [HA, Hydroxylamine, reference compound]",comparison with control group (DFI value),[1]; HA 50 μM,lower
same,comparison with control group (DFI value),[2]; HA 50 μM,lower
same,comparison with control group (DFI value),[3]; HA 50 μM,lower
same,comparison with control group (DFI value),[4]; HA 50 μM,lower
same,detectable concentration (significant difference test),[6],≤ 0.0005 µM
"[Pb+2] [Pb^2+, Lead]",comparison with control group (DFI value),[1]; Pb^2+ 1 ppm,higher
same,comparison with control group (DFI value),[2]; [11],lower
same,comparison with control group (DFI value),[3]; Pb^2+ 1 ppm,higher
same,comparison with control group (DFI value),[4]; [11],lower
"[Zn+2] [Zn^2+, Zinc]",comparison with control group (DFI value),[1]; Zn^2+ 0.5 ppm,higher
same,comparison with control group (DFI value),[1]; Zn^2+ 1 ppm,higher
same,comparison with control group (DFI value),[2]; [12],lower
same,comparison with control group (DFI value),"[2]; Zn^2+ 1 ppm, first value → later value",lower
same,comparison with control group (DFI value),[3]; Zn^2+ 0.5 ppm,higher
same,comparison with control group (DFI value),[3]; Zn^2+ 1 ppm,higher
same,comparison with control group (DFI value),[4]; [12],lower
same,comparison with control group (DFI value),[4]; Zn^2+ 1 ppm,lower
same,half-effective concentration (EC50),[8],0.05 ppm (w/v)
same,EC50 value during the zinc exposure,[9],0.07 ppm
ammonia nitrogen [NH4—N],concentration at which a significant difference in the amount of delayed luminescence was confirmed,[10],≥ 10 mg/L
